Experimental data as given in US20160194358A1, “LINEAR PEPTIDE ANTIBIOTCS” (priority 2013, published 2016).
In brackets after ≈: the same amount, converted by molar mass. Like-named read-outs stand apart in the source and are kept apart here. Where a SMILES comes first, the peptide text is derived from it. [ ]: non-standard residue; d: D form. The star is where a group is joined. boroAla((+)-pinanediol) = C[C@H](N*)B1O[C@@H]2C[C@@H]3C[C@@H](C3(C)C)[C@]2(C)O1; Benzenesulfonyl(4-Ph) = O=S(=O)(c1ccc(-c2ccccc2)cc1)*; Benzoyl(4-(4-Cl-Ph)) = O=C(c1ccc(-c2ccc(Cl)cc2)cc1)*; Ethanesulfonyl(2-NHDecyl) = CCCCCCCCCCNCCS(=O)(=O)*; Propanoyl(3-decylamino) = CCCCCCCCCCNCCC(=O)*; X34 = CCCCc1ccc(-c2ccc(S(=O)(=O)*)cc2)cc1; AlaCOCOOMe = COC(=O)C(=O)[C@H](C)N*; X26 = CCCCCCCCc1ccc(C(=O)*)c(C)c1; X22 = C[C@H](N*)C(=O)C(=O)O; X7 = C[C@H](N*)C(=O)C1CO1; boroAla = C[C@H](N*)B(O)O; Dab = NCC[C@H](N)C(=O)O; X24 = CCCCCCCCNCCC(=O)*; Dap = NC[C@H](N)C(=O)O

Legend:
[1] = tested on: Escherichia coli strain MC4100 IMP-4213, which harbors an LptD mutation; conditions: E. coli MC4100 IMP-4213; 35° C., 22 hours
Method: (§1) In vitro antimicrobial activity of each compound was determined by measuring minimal inhibitor concentrations (MICs) using the broth micro-dilution technique as approved by the Clinical and Laboratory Standards Institute (CLSI). Antibacterial activity was measure against two strains of bacteria: 1) methicillin resistant Staphylococcus aureus (MRSA) strain USA300 (NRS384) and 2) Escherichia coli strain MC4100 IMP-4213, which harbors an LptD mutation. Bacterial inocula were prepared by scraping cells into 1 mL of testing media (cation adjusted Mueller Hinton Broth supplemented with 0.002% v/v Tween-80) and diluting to a final OD600nm of 0.01.
(§2) Test compounds were prepared in DMSO at a concentration of 10 mg/ml. These compound stocks were diluted into testing media at a concentration of 64 μg/ml and 9 serial 1:2 dilutions were made in the same media, in 96-well U bottom microtiter dishes. Bacterial inocula were added to the two fold serial dilutions of test compounds to a final density of OD OD600nm of 0.0005 and incubated stationarily at 35° C. for 22 hours, after which the plates were examined visually.

[2] = tested on: methicillin resistant Staphylococcus aureus (MRSA) strain USA300 (NRS384)
Method: as §1, §2

[3] = MRSA USA300 (NRS384), 35° C., 22 hours

Row | SMILES | MIC (μg/mL) E. coli [1] | MIC (μg/mL) S. aureus [2, 3] | MIC (μg/mL) S. aureus ([2]; USA300, 22 h)
1 | CCCCCCCCCCNCCC(=O)N[C@@H](CCCCN)C(=O)N[C@@H](CC(=O)O)C(=O)N[C@@H](C)C(=O)N[C@@H](CCCCN)C(=O)N[C@@H](C)B1O[C@@H]2C[C@@H]3C[C@@H](C3(C)C)[C@]2(C)O1 [Compound 224] ({Propanoyl(3-decylamino)}-KDAK-{boroAla((+)-pinanediol)}) | >64 µg/mL | 11 µg/mL (≈ 12.5 µM) | 
2 | CCCCCCCCCCNCCC(=O)N[C@@H](CCCCN)C(=O)N[C@H](C(=O)N[C@@H](C)C(=O)N[C@@H](CCCCN)C(=O)N[C@@H](C)C(=O)C(=O)O)[C@@H](C)O [Compound 249] ({Propanoyl(3-decylamino)}-KTAK-X22) | >64 µg/mL |  | 0.71 µg/mL (≈ 0.938 µM)
3 | CCCCCCCCCCNCCS(=O)(=O)N[C@@H](CCN)C(=O)N[C@H](C(=O)N[C@@H](C)C(=O)N[C@@H](CCCCN)C(=O)N[C@@H](C)C(=O)C(=O)OC)[C@@H](C)O [Compound 252] ({Ethanesulfonyl(2-NHDecyl)}-[Dab]TAK-AlaCOCOOMe) | 64 µg/mL (≈ 82.2 µM) |  | 1 µg/mL (≈ 1.28 µM)
4 | CCCCCCCCCCNCCC(=O)N[C@@H](CCCCN)C(=O)N[C@H](C(=O)N[C@@H](C)C(=O)N[C@@H](CN)C(=O)N[C@@H](C)C(=O)C(=O)OC)[C@@H](C)O [Compound 256] ({Propanoyl(3-decylamino)}-KTA[Dap]-AlaCOCOOMe) | >64 µg/mL |  | 10 µg/mL (≈ 13.7 µM)
5 | CCCCc1ccc(-c2ccc(S(=O)(=O)N[C@@H](CCCCN)C(=O)N[C@H](C(=O)N[C@@H](C)C(=O)N[C@@H](CCCCN)C(=O)N[C@@H](C)B3O[C@@H]4C[C@@H]5C[C@@H](C5(C)C)[C@]4(C)O3)[C@@H](C)O)cc2)cc1 [Compound 236] (X34-KTAK-{boroAla((+)-pinanediol)}) | 16 µg/mL (≈ 17.3 µM) | 0.5 µg/mL (≈ 0.541 µM) | 
6 | CCCCCCCCCCNCCC(=O)N[C@@H](CCCCN)C(=O)N[C@H](C(=O)N[C@@H](C)C(=O)N[C@@H](CCCCN)C(=O)N[C@@H](C)B(O)O)[C@@H](C)O [Compound 218] ({Propanoyl(3-decylamino)}-KTAK-boroAla) | >64 µg/mL |  | 2.1 µg/mL (≈ 2.88 µM)
7 | CCCCCCCCCCNCCS(=O)(=O)N[C@@H](CCCCN)C(=O)N[C@H](C(=O)N[C@@H](C)C(=O)N[C@@H](CCCCN)C(=O)N[C@@H](C)C(=O)C(=O)OC)[C@@H](C)O [Compound 250] ({Ethanesulfonyl(2-NHDecyl)}-KTAK-AlaCOCOOMe) | >64 µg/mL |  | 0.5 µg/mL (≈ 0.62 µM)
8 | C[C@H](NC(=O)[C@H](CCCCN)NC(=O)[C@H](C)NC(=O)[C@@H](NC(=O)[C@H](CCCCN)NS(=O)(=O)c1ccc(-c2ccccc2)cc1)[C@@H](C)O)B1O[C@@H]2C[C@@H]3C[C@@H](C3(C)C)[C@]2(C)O1 [Compound 133] ({Benzenesulfonyl(4-Ph)}-KTAK-{boroAla((+)-pinanediol)}) | >64 µg/mL | 8 µg/mL (≈ 9.22 µM) | 
9 | CCCCCCCCCCNCCC(=O)N[C@@H](CCCCN)C(=O)N[C@H](C(=O)N[C@@H](C)C(=O)N[C@@H](CCCCN)C(=O)N[C@@H](C)C(=O)C(=O)OC)[C@@H](C)O [Compound 248] ({Propanoyl(3-decylamino)}-KTAK-AlaCOCOOMe) | >64 µg/mL |  | 1 µg/mL (≈ 1.3 µM)
10 | CCCCCCCCc1ccc(C(=O)N[C@@H](CCCCN)C(=O)N[C@H](C(=O)N[C@@H](C)C(=O)N[C@@H](CCCCN)C(=O)N[C@@H](C)B2O[C@@H]3C[C@@H]4C[C@@H](C4(C)C)[C@]3(C)O2)[C@@H](C)O)c(C)c1 [Compound 274] (X26-KTAK-{boroAla((+)-pinanediol)}) | 0.5 µg/mL (≈ 0.567 µM) | 0.13 µg/mL (≈ 0.147 µM) | 
11 | CCCCCCCCCCNCCNCC(=O)N[C@H](C(=O)N[C@@H](C)C(=O)N[C@@H](CCCCN)C(=O)N[C@@H](C)B1O[C@@H]2C[C@@H]3C[C@@H](C3(C)C)[C@]2(C)O1)[C@@H](C)O [Compound 244] | 64 µg/mL (≈ 83.8 µM) | 0.87 µg/mL (≈ 1.14 µM) | 
12 | C[C@H](NC(=O)[C@@H](NC(=O)[C@H](CCN)NC(=O)c1ccc(-c2ccc(Cl)cc2)cc1)[C@@H](C)O)C(=O)N[C@@H](CCCCN)C(=O)N[C@@H](C)C(=O)C1CO1 (stereo partly shown) [Compound 216] ({Benzoyl(4-(4-Cl-Ph))}-[Dab]TAK-X7) | 16 µg/mL (≈ 21.9 µM) |  | 1 µg/mL (≈ 1.37 µM)
13 | C[C@H](NC(=O)[C@H](CCCCN)NC(=O)[C@H](C)NC(=O)[C@@H](NC(=O)[C@H](CCN)NC(=O)c1ccc(-c2ccc(Cl)cc2)cc1)[C@@H](C)O)B1O[C@@H]2C[C@@H]3C[C@@H](C3(C)C)[C@]2(C)O1 [Compound 112] ({Benzoyl(4-(4-Cl-Ph))}-[Dab]TAK-{boroAla((+)-pinanediol)}) | 64 µg/mL (≈ 76.3 µM) |  | 1 µg/mL (≈ 1.19 µM)
14 | CCCCCCCCNCCC(=O)N[C@@H](CCCCN)C(=O)N[C@H](C(=O)N[C@@H](C)C(=O)N[C@@H](CCCCN)C(=O)N[C@@H](C)B1O[C@@H]2C[C@@H]3C[C@@H](C3(C)C)[C@]2(C)O1)[C@@H](C)O [Compound 226] (X24-KTAK-{boroAla((+)-pinanediol)}) | >64 µg/mL | 6.3 µg/mL (≈ 7.55 µM) | 
